Legend:
[1] = molecular target: T1, CB1 receptor (Homo sapiens, UniProt P21554); experiment: Binding assay for CB1 agonists or inverse agonists (SK-N-MC membranes, [3H]-CP-55,940); details: for inhibition at 0.2 µM: read-out: CB1 receptor binding percent inhibition, test concentration 0.2 μM (footnote 2); for inhibition at 1 µM: read-out: CB1 receptor binding percent inhibition, test concentration 1 μM (footnote 1); for IC50: Cannabinoid CB1 Receptor Binding IC50, calculated by linear regression from percent inhibition at various test concentrations; for inhibition at 0.25 µM: read-out: CB1 receptor binding percent inhibition, test concentration 0.25 μM (footnote 8)
T1 construct: expressed in transfected cells
In short: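 Radioligand displacement: [3H]-CP-55,940 at […], 90 min at 30° C, pH 7.5 Tris buffer with 0.5 mg/mL fatty-acid-free BSA, using semi-purified membranes of human-CB1-transfected SK-N-MC cells. Bound counts collected on GF/C filters, 10 uM WIN 55,212 for non-specific; IC50 from percent inhibition over several concentrations.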

[2] = molecular target: T2, CB2 receptor (Homo sapiens, UniProt P34972); experiment: Binding assay for CB2 agonists or inverse agonists (SK-N-MC membranes, [3H]-CP-55,940); details: for inhibition at 0.2 µM / inhibition at 0.25 µM: read-out: CB2 receptor binding percent inhibition; for inhibition at 0.25 µM: test concentration 0.25 μM (footnote 8)
T2 construct: expressed in transfected cells
In short: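 IC50 came from percent-inhibition data over several compound concentrations, fitted by linear regression. Binding used semi-purified membranes of human CB2-transfected SK-N-MC cells, 90 min at 30 °C, pH 7.5 Tris-HCl with MgCl2, EDTA and BSA, then filtration and scintillation counting.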

[3] = test concentration 0.2 μM (footnote 2)

T2 sequence (P34972 whole entry): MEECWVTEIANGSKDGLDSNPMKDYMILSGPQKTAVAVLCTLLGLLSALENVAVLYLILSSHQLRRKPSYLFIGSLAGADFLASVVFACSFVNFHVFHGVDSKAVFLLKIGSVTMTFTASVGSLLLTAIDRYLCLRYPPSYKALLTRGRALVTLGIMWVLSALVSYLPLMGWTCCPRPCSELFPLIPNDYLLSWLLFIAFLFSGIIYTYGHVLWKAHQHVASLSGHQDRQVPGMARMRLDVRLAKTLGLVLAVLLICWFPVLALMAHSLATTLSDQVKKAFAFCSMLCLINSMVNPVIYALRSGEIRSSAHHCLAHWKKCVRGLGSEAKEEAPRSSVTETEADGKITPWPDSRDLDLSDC
T1 sequence (P21554 whole entry): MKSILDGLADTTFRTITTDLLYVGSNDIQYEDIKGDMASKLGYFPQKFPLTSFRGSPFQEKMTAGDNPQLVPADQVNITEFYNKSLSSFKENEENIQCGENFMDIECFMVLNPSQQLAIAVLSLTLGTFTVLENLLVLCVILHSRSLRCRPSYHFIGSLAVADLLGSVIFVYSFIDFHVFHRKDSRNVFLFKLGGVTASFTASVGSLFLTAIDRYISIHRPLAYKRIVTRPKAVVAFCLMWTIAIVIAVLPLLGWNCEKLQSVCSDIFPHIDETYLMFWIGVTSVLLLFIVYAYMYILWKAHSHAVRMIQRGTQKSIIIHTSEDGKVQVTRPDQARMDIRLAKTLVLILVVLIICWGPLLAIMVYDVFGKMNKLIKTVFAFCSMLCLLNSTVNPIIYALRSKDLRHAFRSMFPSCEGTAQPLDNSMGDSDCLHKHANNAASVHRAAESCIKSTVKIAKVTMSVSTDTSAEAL

Compound	inhibition at 0.2 µM [1] [%]	inhibition at 0.2 µM [2, 3] [%]	inhibition at 1 µM [1] [%]	CB2 receptor binding percent inhibition ([2]; test concentration not stated) [%]	further results
O=C(NN1CCOCC1)c1nn(-c2ccncc2)c2c1CCCC/C2=C\c1ccc(Cl)cc1 [Cpd 183, (8E)-8-(4-chloro-benzylidene)-1-pyridin-4-yl-1,4,5,6,7,8-hexahydro-cycloheptapyrazole-3-carboxylic acid morpholin-4-ylamide]	0	14			
C[C@H](NC(=O)c1nn(-c2ccncc2)c2c1CCCC/C2=C\c1ccc(Cl)cc1)c1ccccc1 [Cpd 171, (8E)-8-(4-chloro-benzylidene)-1-pyridin-4-yl-1,4,5,6,7,8-hexahydro-cycloheptapyrazole-3-carboxylic acid [(1S)-1-phenyl-ethyl]-amide]	2	38			
C[C@@H](NC(=O)c1nn(-c2ccc(F)cc2F)c2c1CCCCC2Cc1cccc(F)c1)c1ccccc1 (stereo partly drawn) [Cpd 173, 1-(2,4-difluoro-phenyl)-8-(3-fluoro-benzyl)-1,4,5,6,7,8-hexahydro-cycloheptapyrazole-3-carboxylic acid [(1R)-1-phenyl-ethyl]-amide]	32	19			
O=C(N[C@@H](CO)c1ccccc1)c1nn(C2CCCCC2)c2c1CCCC[C@@H]2Cc1ccc(F)cc1 [Cpd 66, (8R)-1-cyclohexyl-8-(4-fluoro-benzyl)-1,4,5,6,7,8-hexahydro-cycloheptapyrazole-3-carboxylic acid [(1R)-2-hydroxy-1-phenyl-ethyl]-amide]			16	33	
O=C(N[C@@H](CCl)c1ccccc1)c1nn(-c2nccc(C(F)(F)F)n2)c2c1CCCCC2Cc1cccc(Cl)c1 (stereo partly drawn) [Cpd 178, 8-(3-chloro-benzyl)-1-(4-trifluoromethyl-pyrimidin-2-yl)-1,4,5,6,7,8-hexahydro-cycloheptapyrazole-3-carboxylic acid [(1R)-2-chloro-1-phenyl-ethyl]-amide]	29	29			
O=C(NC1CC1)c1nn(Cc2ccc(Cl)cc2)c2c1CCCCC2Cc1ccc(Cl)cc1 (centres unmarked) [Cpd 34, 1,8-bis-(4-chloro-benzyl)-1,4,5,6,7,8-hexahydro-cycloheptapyrazole-3-carboxylic acid cyclopropylamide]			0	0	
O=C(NN1CCCCC1)c1n[nH]c2c1CCCC/C2=C\c1ccc(Cl)cc1 [Cpd 144, (8E)-8-(4-chloro-benzylidene)-1,4,5,6,7,8-hexahydro-cycloheptapyrazole-3-carboxylic acid piperidin-1-ylamide]	69				IC50 [1]: 30 nM; CB2 receptor binding percent inhibition [2, 3]: ^(2)90%
CC12CCC(C1)C(C)(C)[C@H]2NC(=O)c1nn(C2CCCCC2)c2c1CCCCC2Cc1cccc(Cl)c1 (stereo partly drawn) [Cpd 4, 8-(3-chloro-benzyl)-1-cyclohexyl-1,4,5,6,7,8-hexahydro-cycloheptapyrazole-3-carboxylic acid [(2S)-1,3,3-trimethyl-bicyclo[2.2.1]hept-2-yl]-amide]			51	36	
COC(=O)[C@@H](Cc1ccc(F)cc1)NC(=O)c1nn(-c2ccc(Cl)cc2Cl)c2c1CCCCC2Cc1cccc(Cl)c1 (stereo partly drawn) [Cpd 103, (2R)-2-{[8-(3-chloro-benzyl)-1-(2,4-dichloro-phenyl)-1,4,5,6,7,8-hexahydro-cycloheptapyrazole-3-carbonyl]-amino}-3-(4-fluoro-phenyl)-propionic acid methyl ester]			76	57	IC50 [1]: 300 nM; inhibition at 0.5 µM ([1]; read-out: CB1 receptor binding percent inhibition, test concentration 0.5 μM (footnote 10)): 56%
O=C(NCc1ccccc1)c1n[nH]c2c1CCCCC2Cc1ccc(F)cc1 (centres unmarked) [Cpd 129, 8-(4-fluoro-benzyl)-1,4,5,6,7,8-hexahydro-cycloheptapyrazole-3-carboxylic acid benzylamide]					inhibition at 0.002 µM ([1]; read-out: CB1 receptor binding percent inhibition, test concentration 0.002 μM (footnote 11)): 92%; inhibition at 0.008 µM ([1]; read-out: CB1 receptor binding percent inhibition, test concentration 0.008 μM (footnote 12)): 90%; inhibition at 0.25 µM [1]: 100%; CB1 receptor binding percent inhibition ([1]; test concentration not stated): 94%; inhibition at 0.25 µM [2]: 86%
O=C(NC1CC1)c1nn(C2CCCCC2)c2c1CCCCC2Cc1ccccc1Cl (centres unmarked) [Cpd 31, 8-(2-chloro-benzyl)-1-cyclohexyl-1,4,5,6,7,8-hexahydro-cycloheptapyrazole-3-carboxylic acid cyclopropylamide]			0	35	
O=C(N[C@@H](CO)c1ccccc1)c1nn(C2CCCCC2)c2c1CCCCC2Cc1ccc(F)cc1 (stereo in doubt) [Cpd 67, (8S*)-1-cyclohexyl-8-(4-fluoro-benzyl)-1,4,5,6,7,8-hexahydro-cycloheptapyrazole-3-carboxylic acid [(1R)-2-hydroxy-1-phenyl-ethyl]-amide]			44	55	
O=C(N[C@H](CO)Cc1ccc(O)cc1)c1n[nH]c2c1CCCC/C2=C\c1cccc(Cl)c1 [Cpd 246, (8E)-(2S)-8-(3-chloro-benzylidene)-1,4,5,6,7,8-hexahydro-cycloheptapyrazole-3-carboxylic acid [1-hydroxymethyl-2-(4-hydroxy-phenyl)-ethyl]-amide]	0	15			
COC(=O)[C@@H](Cc1ccc(F)cc1)NC(=O)c1nn(Cc2ccccc2)c2c1CCCCC2c1ccccc1 (stereo partly drawn) [Cpd 87, (2R)-2-[(1-benzyl-8-phenyl-1,4,5,6,7,8-hexahydro-cycloheptapyrazole-3-carbonyl)-amino]-3-(4-fluoro-phenyl)-propionic acid methyl ester]					inhibition at 0.25 µM [1]: 4%; inhibition at 0.25 µM [2]: 0%
O=C(NC1C2CC3CC(C2)CC1C3)c1nn(C2CCCCC2)c2c1CCCCC2Cc1ccccc1Cl (centres unmarked) [Cpd 13, 8-(2-chloro-benzyl)-1-cyclohexyl-1,4,5,6,7,8-hexahydro-cycloheptapyrazole-3-carboxylic acid adamantan-2-ylamide]			0	14	
C[C@@H](NC(=O)c1nn(-c2nccc(C(F)(F)F)n2)c2c1CCCCC2Cc1cccc(Cl)c1)c1ccccc1 (stereo partly drawn) [Cpd 175, 8-(3-chloro-benzyl)-1-(4-trifluoromethyl-pyrimidin-2-yl)-1,4,5,6,7,8-hexahydro-cycloheptapyrazole-3-carboxylic acid [(1R)-1-phenyl-ethyl]-amide]	30	36			
O=C(NC1CCC1)c1nn(Cc2ccc(Cl)cc2)c2c1CCCCC2Cc1cccc(Cl)c1 (centres unmarked) [Cpd 29, 1-(4-chloro-benzyl)-8-(3-chloro-benzyl)-1,4,5,6,7,8-hexahydro-cycloheptapyrazole-3-carboxylic acid cyclobutylamide]			13	18	
C[C@H](NC(=O)c1nn(C2CCCCC2)c2c1CCCCC2Cc1ccc(Cl)cc1)c1ccccc1 (stereo partly drawn) [Cpd 5, 8-(4-chloro-benzyl)-1-cyclohexyl-1,4,5,6,7,8-hexahydro-cycloheptapyrazole-3-carboxylic acid [(1S)-1-phenyl-ethyl]-amide]			22	34	
O=C(NC12CC3CC(CC1C3)C2)c1nn(C2CCCCC2)c2c1CCCCC2Cc1cccc(Cl)c1 (centres unmarked) [Cpd 9, 8-(3-chloro-benzyl)-1-cyclohexyl-1,4,5,6,7,8-hexahydro-cycloheptapyrazole-3-carboxylic acid (hexahydro-2,5-methano-pentalen-3a-yl)-amide]			18	4	

— patent US8378117B2 (priority 2005, dated 2013)
